Laboratory results from patent US10933053B2, “Treating infections with ceftolozane/tazobactam in subjects having impaired renal function” (MERCK SHARP & DOHME CORP., priority 2013, dated 2021).
Each block holds one compound with its values, some of them ahead of it.

Columns and labels:
P. aeruginosa = settings: neutropenic murine-thigh infection model; cited from earlier work
clinical [1] = settings: both, human, in vivo; for Vd: Vss
Description: (§1) This was a Phase 1, multicenter, prospective, open-label study of 750 mg ceftolozane/tazobactam (as CXA-201) administered IV in male and female adult subjects with severe renal impairment (estimated CLCR<30 mL/min) and subjects with end-stage renal disease (ESRD) on hemodialysis (HD). The primary objective of the study was to determine the PK profile of ceftolozane/tazobactam in subjects with severe renal impairment and subjects with ESRD on HD and to determine the effect of HD on the clearance of ceftolozane/tazobactam.
(§2) Subjects with severe renal impairment received a single IV 1-hour infusion of 750 mg ceftolozane/tazobactam on Day 1. […] Subjects in this cohort received an IV dose of 750 mg ceftolozane/tazobactam as a 1 hour infusion immediately after their first HD session on Day 1 (post dialysis, approximately 72 hours prior to the next HD session) and a second dose of ceftolozane/tazobactam approximately 2 hours before their second HD session on Day 4 of the study. Infusion of ceftolozane/tazobactam was completed approximately 1 hour before the start of HD.
(§3) Subjects in both cohorts had urine (if not anuric) and plasma samples collected for determination of levels of ceftolozane, tazobactam and the M1 metabolite of tazobactam; subjects in the ESRD on HD cohort also had dialysate fluid samples collected for PK assessment. Plasma, urine, and dialysate levels of ceftolozane, tazobactam, and its metabolite M1 collected over a prespecified interval were determined by LC/MS/MS assay.
All subjects underwent hemodialysis for 3 to 4 hours using a high-flux membrane (either 1.4, 1.8, or 1.9 m^2) on Days 1, 4, and 6 as scheduled. Average blood flow rate was 264 to 600 mL/min and average dialysis flow rate was either 600 or 800 mL/min for all subjects with ESRD.
All cohorts received ceftolozane/tazobactam as an intravenous infusion over 1 h. The normal, mild, and moderate renal impairment cohorts received a single dose of ceftolozane/tazobactam 1,000 mg/500 mg; the severe renal impairment cohort received a single dose of ceftolozane/tazobactam 500 mg/250 mg; the ESRD cohort received a dose of ceftolozane/tazobactam 500 mg/250 mg initiated at the end of HD on day 1 and another dose initiated 2 h before HD on day 4. Subjects with ESRD underwent HD for 3 to 4 h using a high-flux membrane as scheduled; average dialysis flow rate was 600 to 800 ml/min. Revaclear hemodialyzers (Gambro, Stockholm, Sweden) were used in 5 subjects (ultrafiltration coefficient 50 to 60 ml/h/mmHg, high flux membrane of 1.4 to 1.8 m^2) and a CT 190G hemodialyzers (Baxter Healthcare, McGaw Park, Ill.) was used in 1 subject (ultrafiltration coefficient 36 ml/h/mmHg, high flux membrane of 1.9 m^2). The average blood flow rate was 400 to 600 ml/min with the exception of one subject with rates between 264 and 400 ml/min.
Plasma concentrations of ceftolozane and tazobactam were measured prior to, during, and following administration of ceftolozane/tazobactam. Blood samples were collected 30 min prior to administration, at the end of administration and at 5, 15, and 30 min and 1, 2, 3, 5, 7, 9, 11, 15, 25, and 35 h after completion of ceftolozane/tazobactam administration in the normal, mild, and moderate renal impairment cohorts. Severe renal impairment and ESRD cohorts off HD had samples taken 30 min prior to administration and at 0.5, 1, 1.5, 2, 3, 6, 9, 12, 24, 36, and 48 h after the start of administration. On the day of and following HD, the subjects with ESRD had samples taken 30 min prior to administration and at 0.5, 1, 1.5, 2, 3, 4, 5, 6, 9, 12, 24, 36, and 44 h after the start of the administration. The entire dialysate was collected at each of the following intervals: 0 to 1, 1 to 2, 2 to 3, and 3 h to the end of dialysis. Urine for PK analysis was obtained in the normal, mild, and moderate cohorts at 0 to 2, 2 to 4, 4 to 8, 8 to 12, 12 to 24, and 24 to 36 h after the start of ceftolozane/tazobactam administration.

clinical [2] = settings: both, human, in vivo, 750 mg
Description: as §1, §2, §3

clinical [3] = settings: human, in vivo
Text: The most common adverse reactions (≥5% in either indication) occurring in patients receiving CXA-201 were nausea, headache and diarrhea. Table 3 lists adverse reactions occurring in ≥1.0% of patients receiving CXA-201 in Phase 3 clinical trials.
The majority of adverse events were mild to moderate in severity, and the incidence of treatment-limiting adverse events was <2% in both treatment groups. Epidemiology and susceptibility of organisms isolated from patients with cUTI.

clinical [4] = settings: human, in vivo, t1/2, geometric mean
Description: The extent of ceftolozane exposure increases with decreasing renal function. […] In subjects with moderate renal impairment, exposure approximately doubles relative to that in subjects with normal renal function.
For tazobactam, this estimated exposure from a dose of 125 mg in subjects with severe renal impairment not on hemodialysis is similar to that achieved with 500 mg tazobactam in subjects with normal renal function (23.8 μg·h/mL).

[5] = threshold = 1/2 of the TOL/TAZ MIC; cited from earlier work
human plasma proteins = test: Binding to human plasma proteins; format: in vitro ADME

AUC (clinical [1]): 87 µg·h/mL
AUC48h Ratio (Day 3:1), median (range) (clinical [1]): 0.34 (0.26-0.48)
CLss (clinical [1]): 5.01 (4.11-10.7) L/hr
Change in Concentration (clinical [1]): 32.3 (10.2-44.8)
Clast (clinical [1]): 2.88 (1.23-4.48) μg/mL
Clast lower than Cmax (clinical [1]): approximately 14 fold
Cmax, mean (CV %) (clinical [1]): 40.9 (35) μg/mL
Concentration after HD (clinical [1]): 2.9 (1.2-4.5) μg/mL
Concentration before HD (clinical [1]): 34.4 (13.2-49.3) μg/mL
Half-Life, median (range) (clinical [1]): 43.2 h
Percent Removed (clinical [1]): 91.5 (72.3-96.3) %
Percent Removed, median (range) (clinical [1]): 66 (52-74)
average extraction ratio during HD (clinical [1]): 46%
median Cmax higher vs normal renal function, dose normalized (clinical [1]): 1.2 fold
rebound peak plasma concentration after HD, of the original Cmax (clinical [1]): approximately 17%
reduction in overall exposure (clinical [1]): approximately 66%
tmax, median (minimum, maximum) (clinical [1]): 1.0 (1.0, 1.0) h
AUC(0-t) (clinical [1]; AUC0-t): 97.1 µg·h/mL
AUC(0-inf) (clinical [1]; AUC0-∞): 99.8 µg·h/mL
AUC(0-inf) (clinical [1]; AUC0-∞, median (range)): 1630 µg·h/mL
AUC(0-inf) (clinical [1]; AUC∞, mean (CV %)): 1680 µg·h/mL
clearance (clinical [1]; CL, mean (CV %)): 6.67 mL/min
clearance (clinical [1]; CL, median (range)): 5 mL/min
Cmax (clinical [1]): 41100 ng/mL
Cmax (clinical [1]; median (range)): 44200 ng/mL
half-life (clinical [1]; Half-Life): 1.13 h
half-life (clinical [1]; Half-Life, median (range)): 40.5 h
Vd (clinical [1]): 7.26 L
Vd (clinical [1]; mean (CV %)): 19.2 L
Vd (clinical [1]; median (range)): 17.9 L
clearance (clinical [1]; median dialysis clearance (CLD)): 95.8 mL/min
half-life (clinical [1]; t1/2 during the HD period (median)): 1.13 h
AUC(0-inf) (clinical [2]): 537 µg·h/mL
AUC(0-t) (clinical [2]): 511 µg·h/mL
Vd (clinical [2]): 13.8 L
clearance (clinical [2]): 16.7 mL/min
half-life (clinical [2]): 11.1 h
AUC (clinical [3]): 1100 µg·h/mL
half-life (clinical [4]): 5.85 h
Compound: Cn1c(N)c(NC(=O)NCCN)c[n+]1CC1=C(C(=O)O)N2C(=O)[C@@H](NC(=O)/C(=N\OC(C)(C)C(=O)O)c3nsc(N)n3)[C@H]2SC1 [Ceftolozane, (6R,7R)-3-[(5-amino-4-{[(2-aminoethyl)carbamoyl]amino}-1-methyl-1H-pyrazol-2-ium-2-yl)methyl]-7-({(2Z)-2-(5-amino-1,2,4-thiadiazol-3-yl)-2-[(1-carboxy-1-methylethoxy)imino]acetyl}amino)-8-oxo-5-thia-1-azabicyclo[4.2.0]oct-2-ene-2-carboxylate]
free-drug % T>MIC target associated with 1-log10 CFU reduction from baseline (bactericidal, 1-log kill) (P. aeruginosa): 32.2%
free-drug % T>MIC target associated with net bacterial stasis (P. aeruginosa): 24.8%
daily AUC previously shown to be safe and tolerable in humans (clinical [3]): 1100 µg·h/mL

Compound: C[C@]1(Cn2ccnn2)[C@H](C(=O)O)N2C(=O)C[C@H]2S1(=O)=O [Tazobactam, tazobactam]
AUC (clinical [1]): 26.4 µg·h/mL
AUC48h Ratio (Day 3:1), median (range) (clinical [1]): 0.44 (0.26-0.53)
CLss (clinical [1]): 8.53 (5.53-15.9) L/hr
Change in Concentration (clinical [1]): 10.5 (3.6-17.6)
Clast (clinical [1]): 0.46 (0.13-1.14) μg/mL
Clast lower than Cmax (clinical [1]): ~32 fold
Concentration after HD (clinical [1]): 0.5 (0.1-1.1) μg/mL
Concentration before HD (clinical [1]): 10.8 (3.9-18.7) μg/mL
Half-Life, median (range) (clinical [1]): 5.0 (1.9-8.5) hr
Percent Removed (clinical [1]): 95.3 (83.8-98.6) %
Percent Removed, median (range) (clinical [1]): 56 (47-74)
Tmax (clinical [1]): 1.00 (1.00-1.00) hr
Tmax, median (range) (clinical [1]): 1.0 (1.0-1.0) hr
average extraction ratio during HD (clinical [1]): 53%
median Cmax higher vs normal renal function, dose normalized (clinical [1]): 2.4 fold
median dialysis clearance (CLD) (clinical [1]): 4.39 (1.36-6.29) L/hr
rebound peak plasma concentration after HD, of the original Cmax (clinical [1]): ~6%
reduction in overall exposure (clinical [1]): ~56%
removed by dialysis (clinical [1]): ~56%
t1/2 during the HD period (median) (clinical [1]): 0.91 h
AUC(0-inf) (clinical [1]; AUC0-∞): 29.4 µg·h/mL
AUC(0-inf) (clinical [1]; AUC0-∞, median (range)): 109 µg·h/mL
clearance (clinical [1]; CL, median (range)): 40 mL/min
Cmax (clinical [1]): 14900 ng/mL
Cmax (clinical [1]; median (range)): 20200 ng/mL
half-life (clinical [1]; Half-Life, median (range)): 4.21 h
Vd (clinical [1]): 10.4 L
Vd (clinical [1]; median (range)): 15.2 L
free-drug % T>threshold target [5]: 65.9
binding to human plasma proteins (human plasma proteins): ~30%
half-life (clinical [4]): 1.78 h
